Measurements taken from PubChem BioAssay (NCI).
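96-well plates; 48 h exposure; 5 concentrations. Endpoints by linear interpolation between flanking doses. Not reached: highest tested concentration assigned. TGI: concentration producing complete growth inhibition.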

Tests used:
Test in all cases: inhibition of tumour cell growth, NCI panel, 48 h
NCI/ADR-RES ovarian = tested on: NCI/ADR-RES ovarian
MOLT-4 leukemia = tested on: MOLT-4 leukemia
CCRF-CEM leukemia = tested on: CCRF-CEM leukemia
COLO 205 colon = tested on: COLO 205 colon
A498 renal = tested on: A498 renal
M14 melanoma = tested on: M14 melanoma
OVCAR-4 ovarian = tested on: OVCAR-4 ovarian
OVCAR-5 ovarian = tested on: OVCAR-5 ovarian
HS 578T breast = tested on: HS 578T breast
BT-549 breast = tested on: BT-549 breast
NCI-H23 lung = tested on: NCI-H23 lung
SK-MEL-5 melanoma = tested on: SK-MEL-5 melanoma
U251 CNS = tested on: U251 CNS
HOP-62 NSCLC = tested on: HOP-62 NSCLC
RPMI-8226 leukemia = tested on: RPMI-8226 leukemia
786-0 renal = tested on: 786-0 renal
SF-268 CNS = tested on: SF-268 CNS
NCI-H522 lung = tested on: NCI-H522 lung
UACC-62 melanoma = tested on: UACC-62 melanoma
DU-145 prostate = tested on: DU-145 prostate

Row | Structure (SMILES) | TGI (NCI/ADR-RES ovarian) [µM] | TGI (MOLT-4 leukemia) [µM] | TGI (CCRF-CEM leukemia) [µM] | TGI (COLO 205 colon) [µM] | TGI (A498 renal) [µM] | TGI (M14 melanoma) [µM] | TGI (OVCAR-4 ovarian) [µM] | TGI (OVCAR-5 ovarian) [µM] | TGI (HS 578T breast) [µM] | TGI (BT-549 breast) [µM] | TGI (NCI-H23 lung) [µM] | TGI (SK-MEL-5 melanoma) [µM] | TGI (U251 CNS) [µM] | TGI (HOP-62 NSCLC) [µM] | TGI (RPMI-8226 leukemia) [µM] | TGI (786-0 renal) [µM] | TGI (SF-268 CNS) [µM] | TGI (NCI-H522 lung) [µM] | TGI (UACC-62 melanoma) [µM] | TGI (DU-145 prostate) [µM]
1 | CNn1c(-c2ccc(C)cc2)n[nH]c1=O | > 100 | > 100 | > 100 | > 100 | > 100 | > 100 | > 100 | > 100 | > 100 | > 100 | > 100 | > 100 | > 100 | > 100 | > 100 | > 100 | > 100 | > 100 | > 100 | 
2 | COc1ccc(C2Oc3c(cccc3-c3c(-c4ccc(O)cc4)oc4cc(O)cc(O)c4c3=O)C(=O)C2O)cc1O (configuration not stated) | > 100 | > 100 | > 100 | > 100 | > 100 | > 100 | > 100 | > 100 |  | > 100 | > 100 | > 100 | > 100 | > 100 | > 100 | > 100 | > 100 |  | > 100 | > 100
3 | CC(Cc1ccccc1)N(C)Cc1nc(C2CCC([N+](=O)[O-])O2)no1 (configuration not stated) | 82.5 | > 100 | 44.8 | 12.9 |  | 19.1 | 21.3 | 29 | 17.9 |  | 19.4 | 24.3 | 22.9 | 19.7 | 72.8 | 24.6 | > 100 |  | 22.1 | 24.9
4 | CC(C)[C@@H]1CC[C@@H](C)C[C@H]1OC(=O)/C=C1\C(C(=O)O[C@@H]2C[C@H](C)CC[C@H]2C(C)C)[C@H]2C=C[C@@H]1O2 (some centres not stated) | > 100 | > 100 | > 100 | > 100 | > 100 | > 100 | > 100 | > 100 | > 100 |  | > 100 | > 100 | > 100 | > 100 | > 100 | > 100 | > 100 | > 100 | > 100 | > 100
5 | CC(=O)c1c2c(cc3c1CC1(Cc4cc5c(cc4C1)C(=O)CCC5)C3)CCCC2 (configuration not stated) | > 100 | 7.96 | 5.01 | 21.7 | 8.95 | > 100 | > 100 | > 100 | > 88.3 |  | > 100 | 7.38 | > 100 | 43.4 | 13.2 | 33.1 | 65 | 31.4 | > 39.2 | > 100
6 | COc1ccc2nc3n(c2c1)C(c1c(F)cccc1F)SC3 (configuration not stated) | 59.2 | > 100 | > 100 | > 100 | > 100 | > 100 | > 100 | > 100 | 87.7 | > 100 | > 100 | > 100 | > 100 | > 100 | > 100 | > 100 | > 100 |  | > 100 | > 100
7 | CC1(C)OC[C@H](COCOP2(=O)Oc3ccc4ccccc4c3-c3c(ccc4ccccc34)O2)O1 | 36 | 41.4 | 84.8 |  | 31 | 32 |  | 33.4 | > 100 | 31 | 29.6 | 73 | 31.9 | 40 |  | 81.6 | 39.1 |  | 46.9 | 32.2
8 | O=c1[nH]nc(-c2ccccc2)n1-c1cccc([N+](=O)[O-])c1 | > 100 | > 100 | > 100 | > 100 | > 100 | > 100 | > 100 | > 100 | > 100 |  | > 100 | > 100 | > 100 | > 100 | > 100 | > 100 | > 100 | > 100 | > 100 | > 100
9 | COc1ccc(/C=C2\Sc3nnc(-c4ccccc4)n3N=C2c2cc(F)c(Cl)cc2Cl)cc1OC | > 100 | 68.9 | > 100 |  | > 100 | > 100 | > 100 | > 100 | > 100 |  | > 100 | > 100 | > 100 | > 100 | > 100 | > 100 | > 100 | 38.3 |  | > 100
10 | CC(C)(C)[Si](C)(C)OCCc1ccccc1C1CC2(S(=O)(=O)c3ccccc3)ON1CC2S(=O)(=O)c1ccccc1 (configuration not stated) | > 100 | > 100 | > 100 | > 100 | > 100 | > 100 | > 100 | > 100 | > 100 | > 100 | > 100 | > 100 | > 100 | > 100 |  | > 100 | > 100 |  | > 100 | > 100
11 | CC(C)(C)n1c(=O)n(-c2ccccc2)n(C(C)(C)C)c1=O | > 100 | > 100 | > 100 | > 100 | > 100 | > 100 | > 100 | > 100 | > 100 | > 100 | > 100 | > 100 | > 100 | > 100 |  | > 100 |  |  | > 100 | 
12 | CN(C(=S)Cc1ccc(Cl)c(Cl)c1)C1CCCC[C@@H]1N1CCCC1 (some centres not stated) | > 100 | > 100 |  |  | 60.6 | 37.2 | > 100 | > 100 |  | > 100 | > 100 | 33 | > 100 | > 100 | > 100 | 55 |  |  | 34.1 | > 100
